# Measured values: patent US8871208B2, “11-β-hydroxysteroid dehydrogenase type 1 (11β-HSD1) inhibitors and uses thereof” (AbbVie Inc., priority 2009, dated 2014)
# Where two headings read alike, the source gives them in different places. Marks after values point to notes of the source that are not given here.
# Columns and labels:
# [1] = system: inflammation, tissue destruction, bone erosion; settings: animal models of RA; cited from earlier work
# [2] = system: Trabecular bone at Femoral Metaphysis; assay: Mouse model of glucocorticoid-induced osteoporosis: femur histomorphometry; type: in vivo; settings: mice, diet with Compound B
# Source text: (§1) Purpose: The purpose of this experiment was to determine if inhibiting 11β-HSD-1 in mice results in protection from prednisolone-induced bone loss over a 28-day period, while maintaining the same anti-inflammatory efficacy against lipopolysaccharide(LPS)-induced TNFα.
# (§2) Animals: Female Swiss Webster mice from Charles River Laboratories (CFW mice) were used in this study. Mice were 10 weeks old at the start of the study. Two identical prednisolone dose responses were run with a vehicle control (n=12), 5, 1.5, and 0.5 mg/kg dosed for 28 days (n=8 each), and 1.5 mg/kg dosed for 27 days (n=8, to determine if prednisolone needed to be on board to affect tumor necrosis factor-alpha(TNFα), procollagen type 1 N-terminal propeptide(P1NP), and Osteocalcin). […] The total number of animals used was 88.
# (§3) Experimental Design: All animals were placed on the control diet (Research Diets Rodent Diet with 60 kcal % Fat: D12492i) upon arrival. […] Also on this day, animals were weighed for baselines and ear-tagged for identification. On day 1 of the study, all animals were injected intraperitoneally (i.p.) with 10 mg/kg of calcein (Sigma #C0875) in 2% sodium bicarbonate (Sigma #S6014, dissolved in deionized water). […] On day 27, 4 animals from each vehicle control group were challenged with 5 mg/kg of 11-dehydrocorticosterone (11-DHC [Steraloids #Q3690-000]) p.o., and plasma was collected 30 minutes later for corticosterone analysis by mass spec. […] Thirty minutes later, all groups were challenged with 0.1 mg/kg of LPS (Sigma #L4130) to induce TNFα. […] Right leg bones, left leg bones, and the spinal columns of all mice were collected and stored as follows:
# Left leg bones were removed, cleaned, and cut identically to the right leg bones. However, left legs were separated at the knee joint by carefully teasing apart with a scalpel.
# Femurs were fixed in 4% paraformaldehyde for 48 hours, and transferred to 30% sucrose for 24 hours before embedding in a CMC (carboxymethylcellulose) block. Blocks were frozen in liquid nitrogen-cooled hexanes (−60° C. or colder) for 3-5 minutes, and stored at −80° C. Femurs were then sectioned on a cryomicrotome.
# Bone was measured from 8-10 fields per femur, with each field being 400×500 microns in size. All dynamic measurement calculations were made from scoring the second and third fluorochrome labels, which were administered 11 days apart. OsteoMeasure software was used to obtain all values.
# Bone formation rate/bone volume (BFR/BV) refers to the volume of new bone formed per unit of time, and is measured as a percent per day. BFR is the most significant measure of bone formation.
# Mineral apposition rate (MAR) refers to the distance between two fluorochrome labels divided by the number of days between label administration, and is indicative of osteoblastic activity.
# Double labeled surface/bone surface (dLS/BS) refers to the percentage of trabecular bone surface which is double-labeled, and is another readout indicative of bone formation.
# Osteocalcin = assay: Mouse model of glucocorticoid-induced osteoporosis: plasma osteocalcin; type: in vivo; settings: mice, diet with Compound B
# Source text: as §1, §2, §3
# Osteocalcin was measured using the Millipore Milliplex Mouse Osteocalcin Single-Plex Kit. The protocol was followed exactly as outlined in the kit. Samples were read on a BioRad Bio-Plex System, model # Luminex 100 and Bio-Plex Manager 4.1.1 software.
# TNFα = assay: Mouse model of glucocorticoid-induced osteoporosis: LPS-induced TNFα; type: in vivo; settings: mice, LPS 0.1 mg/kg challenge, diet with Compound B
# Source text: as §1, §2, §3
# TNFα was measured using the Mouse […] Quantikine ELISA kit from R&D Systems. The protocol was followed as outlined in the kit. Samples were read using a Molecular Devices Spectra Max 250 plate reader and Soft Max Pro 4.8 software.
# [3] = system: P1NP (N-terminal propeptide of type I procollagen); assay: Mouse model of glucocorticoid-induced osteoporosis: plasma P1NP; type: in vivo; settings: mice, diet with 873 mg Compound B/kg
# Source text: as §1, §2, §3
# N-terminal propeptide of type I procollagen (PINP) was measured using the Rat/Mouse PINP EIA kit from Immunodiagnostic Systems. The protocol was followed as outlined in the kit, except for that sample dilutions were made in a separate plate instead of directly in the ELISA plate. Samples were read using a Molecular Devices Spectra Max 190 plate reader and Soft Max Pro 5.2 software.
# [4] = system: markers of bone resorption; settings: bone samples, healthy human volunteers, orally dosed; cited from earlier work
# insulin sensitivity = settings: humans; cited from earlier work
# human 11β-HSD-2 = target: T1, human 11β-HSD-2 (Homo sapiens, UniProt P80365); assay: Human 11β-HSD-2 enzymatic SPA assay; type: biochemical
# T1 sequence (P80365 1-405): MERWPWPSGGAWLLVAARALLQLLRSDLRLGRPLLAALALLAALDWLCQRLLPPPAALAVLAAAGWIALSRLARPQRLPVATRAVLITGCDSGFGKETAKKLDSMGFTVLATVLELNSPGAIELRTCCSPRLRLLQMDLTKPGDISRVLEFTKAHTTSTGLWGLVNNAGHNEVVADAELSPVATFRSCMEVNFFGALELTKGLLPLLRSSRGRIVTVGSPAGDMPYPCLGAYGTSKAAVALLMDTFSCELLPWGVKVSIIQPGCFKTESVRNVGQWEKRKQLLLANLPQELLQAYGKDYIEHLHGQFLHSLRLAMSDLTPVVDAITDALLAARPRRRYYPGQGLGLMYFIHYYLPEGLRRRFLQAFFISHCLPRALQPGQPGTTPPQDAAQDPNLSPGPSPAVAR
# Description: (§4) The ability of test compounds to inhibit human 11β-HSD-1 enzymatic activity in vitro was evaluated in a Scintillation Proximity Assay (SPA). […] The reaction was stopped by adding a non-specific 11β-HSD inhibitor, 18β-glycyrrhetinic acid. The tritiated cortisol was captured by a mixture of an anti-cortisol monoclonal antibody and SPA beads coated with anti-mouse antibodies. The reaction plate was shaken at room temperature and the radioactivity bound to SPA beads was then measured on a β-scintillation counter. The 11β-HSD-1 assay was carried out in 96-well microtiter plates in a total volume of 220 μl. […] In order to drive the reaction in the forward direction, 1 mM G-6-P was also added. Solid compound was dissolved in DMSO to make a 10 mM stock followed by a subsequent 10-fold dilution with 3% DMSO in Tris/EDTA buffer (pH 7.4). 22 μl of titrated compounds was then added in triplicate to the substrate. Reactions were initiated by the addition of 10 μl of 0.1 mg/ml E. coli lysates overexpressing 11β-HSD-1 enzyme. After shaking and incubating plates for 30 minutes at room temperature, reactions were stopped by adding 10 μl of 1 mM glycyrrhetinic acid. The product, tritiated cortisol, was captured by adding 10 μl of 1 μM monoclonal anti-cortisol antibodies and 100 μl SPA beads coated with anti-mouse antibodies. After shaking for 30 minutes, plates were read on a liquid scintillation counter Topcount. Percent inhibition was calculated based on the background and the maximal signal. Wells that contained substrate without compound or enzyme were used as the background, while the wells that contained substrate and enzyme without any compound were considered as maximal signal. Percent of inhibition of each compound was calculated relative to the maximal signal and IC50 curves were generated. This assay was applied to 11β-HSD-2 as well, whereby tritiated cortisol and NAD^+ were used as substrate and cofactor, respectively.
# [5] = target: T2, truncated human 11β-HSD-1 enzyme (24-287AA) (Homo sapiens, UniProt P28845); assay: Human 11β-HSD-1 enzymatic SPA assay; type: biochemical
# T2 construct: truncated human 11β-HSD-1 enzyme (24-287AA); made in house; host or cells: E. coli (lysate)
# T2 sequence (P28845 24-287): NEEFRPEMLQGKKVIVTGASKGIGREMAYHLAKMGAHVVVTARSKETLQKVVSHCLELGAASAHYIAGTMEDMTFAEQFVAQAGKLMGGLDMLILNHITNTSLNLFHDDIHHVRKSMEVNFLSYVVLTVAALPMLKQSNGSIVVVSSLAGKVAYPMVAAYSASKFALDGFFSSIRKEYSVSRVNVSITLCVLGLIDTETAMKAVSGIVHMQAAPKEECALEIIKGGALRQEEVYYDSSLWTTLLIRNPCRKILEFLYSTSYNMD
# Description: as §4
# [6] = prednisolone 0.5 mg/kg, p < 0.05 vs. vehicle control
# [7] = prednisolone 5 mg/kg, p < 0.05 vs. (−) inhibitor
smiles,measurement,setting,value
CC1(C)[C@@H](O)CC[C@]2(C)[C@H]3C(=O)C=C4[C@@H]5C[C@@](C)(C(=O)O)CC[C@]5(C)CC[C@@]4(C)[C@]3(C)CC[C@@H]12 [glycyrrhetinic acid],"effect on inflammation, tissue destruction and bone erosion",[1],reduced inflammation and tissue destruction as well as bone erosion
"CC(C)(Oc1ccc(F)cc1Cl)C(=O)NC1C2CC3CC1CC(S(C)(=O)=O)(C3)C2 (centres unmarked) [Compound B, 2-(2-chloro-4-fluorophenoxy)-2-methyl-N-[(E)-5-(methylsulfonyl)-2-adamantyl]propanamide]","% Inhibition of MAR, (+) Inhibitor",[2]; prednisolone 0.5 mg/kg,9%
same,"% Increase in BFR/BV, (+) Inhibitor",[2]; [6],47%^#
same,"% Increase in dLS/BS, (+) Inhibitor",[2]; [6],22%^#
same,"% Inhibition of MAR, (+) Inhibitor",[2]; prednisolone 5 mg/kg,23%
same,"% Increase in BFR/BV, (+) Inhibitor",[2]; [7],30%*
same,"% Increase in dLS/BS, (+) Inhibitor","[2]; prednisolone 5 mg/kg, p < 0.05 vs. vehicle control",46%^#
same,"% Inhibition of Osteocalcin, (+) Inhibitor",Osteocalcin; prednisolone 0.5 mg/kg,18%
same,"% Inhibition of Osteocalcin, (+) Inhibitor",Osteocalcin; [7],28%*
same,"% Inhibition of TNFα, (+) Inhibitor",TNFα; prednisolone 0.5 mg/kg,80%
same,"% Inhibition of TNFα, (+) Inhibitor",TNFα; prednisolone 5 mg/kg,98%
same,"% Inhibition of TNFα, (+) Inhibitor",TNFα; prednisolone […],94%
same,"% Inhibition of P1NP, (+) Inhibitor",[3]; prednisolone 0.5 mg/kg p.o. daily 28 days,25%
same,"% Inhibition of P1NP, (+) Inhibitor",[3]; prednisolone […] p.o. daily 28 days,28%
CC1(C)[C@@H](OC(=O)CCC(=O)O)CC[C@]2(C)[C@H]3C(=O)C=C4[C@@H]5C[C@@](C)(C(=O)O)CC[C@]5(C)CC[C@@]4(C)[C@]3(C)CC[C@@H]12 [carbenoxolone],markers of bone resorption,[4],significant decrease in markers of bone resorption
same,insulin sensitivity,insulin sensitivity,improves insulin sensitivity
CC(C(=O)NC1C2CC3CC1CC(NS(C)(=O)=O)(C3)C2)N1CCN(c2ccc(C(F)(F)F)cn2)CC1 (centres unmarked) [N-{(E)-5-[(methylsulfonyl)amino]-2-adamantyl}-2-{4-[5-(trifluoromethyl)pyridin-2-yl]piperazin-1-yl}propanamide],IC50,"human 11β-HSD-2; human enzyme, SPA",> 30000 nM
same,IC50,"[5]; human enzyme, SPA",67 nM
"CC1(C)C(=O)N(C2C3CCCC2CC(C(N)=O)C3)CC1COc1ccc(C#N)cn1 (centres unmarked) [9-(4-{[(5-cyanopyridin-2-yl)oxy]methyl}-3,3-dimethyl-2-oxopyrrolidin-1-yl)bicyclo[3.3.1]nonane-3-carboxamide]",IC50,human 11β-HSD-2,8280 nM
same,IC50,[5],51 nM
CC(C)(C(=O)N[C@@H]1[C@@H]2C[C@@H]3C[C@H]1C[C@@](C(N)=O)(C3)C2)N1CCN(c2ccccn2)CC1 [(E)-4-{[2-methyl-2-(4-pyridin-2-ylpiperazin-1-yl)propanoyl]amino}adamantane-1-carboxamide],IC50,"human 11β-HSD-2; human enzyme, SPA",> 30000 nM
same,IC50,"[5]; human enzyme, SPA",37 nM
Cc1ccccc1CN1CCC(C)(C(=O)NC2C3CC4CC(C3)C(C(N)=O)C2C4)C1=O (centres unmarked) [(E)-4-(aminocarbonyl)-2-adamantyl]-3-methyl-1-(2-methylbenzyl)-2-oxopyrrolidine-3-carboxamide],IC50,"human 11β-HSD-2; human enzyme, SPA",12000 nM
same,IC50,"[5]; human enzyme, SPA",23 nM
NC(=O)C12CC3CC(C1)C(NC(=O)C1(Oc4ccc(Cl)cc4)CCC1)C(C3)C2 (centres unmarked) [(E)-4-({[1-(4-chlorophenoxy)cyclobutyl]carbonyl}amino)adamantane-1-carboxamide],IC50,"human 11β-HSD-2; human enzyme, SPA",90000 nM
same,IC50,"[5]; human enzyme, SPA",89 nM
CC(C)(C(=O)N[C@@H]1[C@@H]2C[C@@H]3C[C@H]1C[C@@](CC(=O)O)(C3)C2)N1CCN(c2ccc(C(F)(F)F)cn2)CC1 [{(E)-4-[(2-methyl-2-{4-[5-(trifluoromethyl)pyridin-2-yl]piperazin-1-yl}propanoyl)amino]-1-adamantyl}acetic acid],IC50,"human 11β-HSD-2; human enzyme, SPA",> 10000 nM
same,IC50,"[5]; human enzyme, SPA",80 nM
NC(=O)OC12CC3CC(C1)C(NC(=O)CN1CCN(c4ccc(C(F)(F)F)cn4)CC1)C(C3)C2 (centres unmarked) [(E)-4-[({4-[5-(trifluoromethyl)pyridin-2-yl]piperazin-1-yl}acetyl)amino]-1-adamantyl carbamate],IC50,"human 11β-HSD-2; human enzyme, SPA",> 10000 nM
same,IC50,"[5]; human enzyme, SPA",150 nM
NC(=O)[C@]12C[C@@H]3C[C@H](C1)[C@@H](NC(=O)C1(c4ccc(Cl)cc4)CC1)[C@@H](C3)C2 [(E)-4-({[1-(4-chlorophenyl)cyclopropyl]carbonyl}amino)adamantane-1-carboxamide],IC50,"human 11β-HSD-2; human enzyme, SPA",> 30000 nM
same,IC50,"[5]; human enzyme, SPA",33 nM
